Consider 27 compounds from patent US6951866B2, “Bicyclic pyrimidine compounds and therapeutic use thereof” (Sumitomo Pharmaceuticals Company, Limited, priority 1998, dated 2005).

Where two headings read alike, the source gives them in different places.

Assay type in all cases: cell-based
In one assay the test system is IL-4. The assay can be described thus: Cytokine production (IL-4) from KLH-stimulated mouse lymph node cells, ELISA. The settings on record: 4 days; for IC50: Mus musculus, 96 h, lymph node cells of KLH-sensitized BALB/c mice, KLH 0.1 mg/ml, read-out: IL-4 inhibition activity IC50; for production of IL-4: Test 3, KLH-stimulated mouse lymph node cells. The protocol: (§1) Activity on Cytokines Production from Mouse Lymph Node Cells by Compounds of Working Examples
(§2) BALB/c mice were purchased from Japan Charlse River (Yokohama) and 8 weeks female mice were used.
(§3) D-MEM (High Glucose) medium (Nikken Biomedical Research Lab. (Kyoto), Code No. CM4402) supplemented with 20% heat-inactivated (56° C., 30 min.) fetal bovine serum (Characterized, Code No. A-1115-L, HyClone Lab., Logan, Utah), 50 μM 2-mercaptoethanol (Sigma, St. Louis, Mo., Code No. M-6250), 100 unit/ml penicillin and 100 μg/ml streptomycin (Penicillin-Streptomycin, Bibco-BRL, Code No. 15140-122) were used for the assay.
Each test compound dissolved in DMSO (Nacalai Tesque (Kyoto) code No. 11J) at a concentration of 100 mM was diluted to final concentration with the medium.
KLH (0.2 mg) was subcutaneously administered to mouse foot with Freund's complete adjuvant (Difco Lab., Detroit, Mich., Code No. 3113-60-5). Eight days later popliteal lymph node was picked up and its cell suspension was prepared.
(§4) KLH (0.1 mg/ml) and the test compound were added to lymph node cells (2.5×10^6 cells/ml) and the mixture was incubated at 37° C. under 5% CO2 for 4 days (Corning 25850, 0.15 ml/well). Then, amount of cytokine produced in the supernatant was measured by ELISA specific to cytokine.
(§5) Amounts of interleukin 4 (IL-4) and interleukin 5 (IL-5) as a typical Th2 type cytokine, and amount of interferon γ (IFN-γ) as a typical Th1 type cytokine were measured.
Amount of IL-4 was measured by ELISA as mentioned below. A rat anti-mouse IL-4 antibody (Pharmingen, San Diego, Calif., Code No. 18031D, 0.5 mg/ml) as a primary antibody was diluted 250 times with hydrogen carbonate buffer, and it was inoculated to the 96-well plate (Falcon 3912, Becton Dickinson and Company, Flanklin Lakes, N.J.) (50μ/well) and each well was coated at 4° C. overnight. Then the plate was blocked with PBS (−) solution (phosphate-buffered saline without calcium chloride and magnesium chloride) containing 3% BSA (200 μl/well). After rinsing the plate three times with PBS (−) solution containing 0.05% polyoxyethylene solbitan monolaurate (Tween 20™, Nacalai Tesque (Kyoto) Code No. 281-51) (PBST), the supernatant of the culture medium was added to the wells (50 μl/well) and incubated at room temperature for 4 hours. Recombinant mouse IL-4 (Pharmingen, Code No. 19231W) was used for preparing a calibration curve.
After rinsing the plate three times with PBST, a rat anti-mouse IL-4 antibody labeled by biotin (Pharmingen, Code No. 18042D, 0.5 mg/ml) as a secondary antibody, which was diluted 500 times with PBS (−) solution containing 0.1% BSA, was poured into wells (100 μl/well). The plate was incubated at room temperature for one hour. The secondary antibody bound to the plate was detected with streptoabidin alkaliphosphatase (Kirkegaad & Perry Lab., Gaithersburg, Md., Code No. 15-30-00) (0.25 μg/ml, 100 μl/well). After incubation of the plate at 37° C. for one hour and rinsing the plate three times with PBST, the coloring was done by adding PNPP substrate (p-nitrophenyl disodium phosphate substrate (Nacalai Tesque) (1 mg/ml, 100 μl/well)). The absorption at 415 nm was measured by a microplate reader (MTP-120 Microplate reader, Corona Electric Co.)
In the same manner as in Test 1, each test compound dissolved in DMSO (Nacalai Tesque (Kyoto) code No. 11J) at a concentration of 100 mM was diluted to final concentration with the medium. Sensitization and preparation of lymph node cells, production of cytokine by stimulation with an antigen and measurement of amounts of cytokines were conducted in the same method as in Test 1.
By measuring inhibition rate of production of IL-4 at various concentrations of each test compound and using a graph relating to the compound concentration and the inhibition rate, 50% inhibition concentration (IC50) on each test compound was calculated.
For orientation: In an ELISA, binding on a coated surface is turned into a signal by an enzyme label.

Another assay has as its system IL-5. Nature of the assay: Cytokine production (IL-5) from KLH-stimulated mouse lymph node cells, ELISA. The conditions noted are these: Test 3, 4 days. The procedure:
as §1, §2, §3
(§6) Each test compound dissolved in DMSO (Nacalai Tesque (Kyoto) code No. 11J) at a concentration of 100 mM was diluted to final concentration with the medium. […]
as §4, §5
(§7) Amount of IL-4 was measured by ELISA as mentioned below. […]

Another assay deals with IFN-γ. The assay can be described thus: Cytokine production (IFN-γ) from KLH-stimulated mouse lymph node cells, ELISA. The settings on record: Test 3, 4 days. The protocol:
as §1, §2, §3, §6, §4, §5, §7

Consider `CCOC(=O)CNc1nc(N)nc2c1CCCC2` [Example 1, Ethyl-2-[(2-amino-5,6,7,8-tetrahydroquinazoline-4-yl)amino]acetate], for which, in the assay on IL-4 (Test 2, Table 1), the IC50 came to 0.6 µg/mL.

On to `Nc1nc2c(c(NCC3CCCCC3)n1)CCCC2` [Example 2, N-(2-Amino-5,6,7,8-tetrahydroquinazoline-4-yl)-N-(cyclohexylmethyl)amine], for which, in the assay on IL-4 (Test 2, Table 1), the concentration for half-maximal inhibition (IC50) worked out at 0.6 µg/mL.

Consider `CCOC(=O)C(CC(C)C)Nc1nc(N)nc2c1CCCC2` (stereo not drawn) [Example 3, Ethyl-2-[(2-amino-5,6,7,8-tetrahydroquinazoline-4-yl)amino]-4-methylpentanoate], for which the IC50 in the assay on IL-4 (Test 2, Table 1) was determined as 0.5 µg/mL.

`CCOCCNc1nc(N)nc2c1CCCC2` [Example 4, N-(2-Amino-5,6,7,8-tetrahydroquinazoline-4-yl)-N-(2-ethoxyethyl)amine]: the 50% inhibitory concentration (IC50) in the assay on IL-4 (Test 2, Table 1) was 3 µg/mL.

As to `CCCCNc1nc(N)nc2c1CCCC2` [Example 5, N-(2-Amino-5,6,7,8-tetrahydroquinazoline-4-yl)-N-butylamine], the IC50 with IL-4 (Test 2, Table 1) amounted to 0.2 µg/mL.

Consider `CCCCCCNc1nc(N)nc2c1CCCC2` [Example 6, N-(2-Amino-5,6,7,8-tetrahydroquinazoline-4-yl)-N-hexylamine], for which, in the assay with IL-4 (Test 2, Table 1), the IC50 stood at 1 µg/mL.

As to `CCOC(=O)C(C)Nc1nc(N)nc2c1CCCC2` (stereo not drawn) [Example 7, Ethyl 2-[(2-amino-5,6,7,8-tetrahydroquinazoline-4-yl)amino]propanoate], the concentration for half-maximal inhibition (IC50) in the assay on IL-4 (Test 2, Table 1) amounted to 0.5 µg/mL.

Consider `CCOC(=O)C(CO)Nc1nc(N)nc2c1CCCC2` (stereo not drawn) [Example 8, Ethyl 2-[(2-amino-5,6,7,8-tetrahydroquinazoline-4-yl)amino]-3-hydroxypropanoate], for which the IC50 in the assay on IL-4 (Test 2, Table 1) is 1 µg/mL.

`CCCCC(Nc1nc(N)nc2c1CCCC2)C(=O)OC` (stereo not drawn) [Example 9, Methyl 2-[(2-amino-5,6,7,8-tetrahydroquinazoline-4-yl)amino)hexanoate]: the half-maximal inhibitory concentration (IC50) with IL-4 (Test 2, Table 1) worked out at 1 µg/mL.

For `CCCCC(CO)Nc1nc(N)nc2c1CCCC2` (stereo not drawn) [Example 10, 2-[(2-Amino-5,6,7,8-tetrahydroquinazoline-4-yl)amino]hexane-1-ol], the IC50 in the assay on IL-4 (Test 2, Table 1) is 0.1 µg/mL.

For the compound `CCCC(O)CNc1nc(N)nc2c1CCCC2` (stereo not drawn) [Example 11, 1-[(2-Amino-5,6,7,8-tetrahydroquinazoline-4-yl)amino]pentane-2-ol], the 50% inhibitory concentration (IC50) with IL-4 (Test 2, Table 1) was found to be 0.1 µg/mL.

For the compound `CCCC(=O)CNc1nc(N)nc2c1CCCC2` [Example 12, 1-[(2-Amino-5,6,7,8-tetrahydroquinazoline-4-yl)amino]pentane-2-one], the IC50 in the assay with IL-4 (Test 2, Table 1) was determined as 1 µg/mL.

As to `Nc1nc2c(c(NCC3CCCO3)n1)CCCC2` (stereo not drawn) [Example 13, N-(2-Amino-5,6,7,8-tetrahydroquinazoline-4-yl)-N-(tetrahydorofuran-2-ylmethyl)amine], the IC50 in the assay on IL-4 (Test 2, Table 1) was 10 µg/mL.

`CCCCCNc1nc(N)nc(C)c1CCCC` [Example 14, N-(2-Amino-5-butyl-6-methylpyrimidine-4-yl)-N-pentylamine]: the IC50 in the assay with IL-4 (Test 2, Table 1) turned out to be 0.1 µg/mL.

Consider `CCCCCCc1c(C)nc(N)nc1NCCCCC` [Example 15, N-(2-Amino-5-hexyl-6-methylpyrimidine-4-yl)-N-pentylamine], for which, in the assay on IL-4 (Test 2, Table 1), the concentration for half-maximal inhibition (IC50) is 0.4 µg/mL.

For the compound `CCCCCNc1nc(N)nc2c1COCC2` [Example 16, N-(2-Amino-7,8-dihydro-5H-pyrano[4,3-d]pyrimidine-4-yl)-N-pentylamine], in the assay with IL-4 (Test 2, Table 1), the IC50 was 3 µg/mL.

Regarding `CCCCCNc1nc(N)nc(CCCC)c1C` [Example 17, N-(2-Amino-6-butyl-5-methylpyrimidine-4-yl)-N-pentylamine], the IC50 with IL-4 (Test 2, Table 1) amounted to 5 µg/mL.

For `CCCCCNc1nc(N)nc(C)c1C` [Example 18, N-(2-Amino-5,6-dimethylpyrimidine-4-yl)-N-pentylamine], in the assay on IL-4 (Test 2, Table 1), the 50% inhibitory concentration (IC50) stood at 0.3 µg/mL.

As to `CCCCCNc1nc(N)nc2c1CCCC2` [Example 19, N-(2-Amino-5,6,7,8-tetrahydroquinazoline-4-yl)-N-pentylamine], in the assay on IL-4 (Test 2, Table 1), the IC50 worked out at 0.2 µg/mL.

Consider `CCCCCNc1nc(N)nc2c1CCC2` [Example 20, N-(2-Amino-6,7-dihydro-5H-cyclopenta[d]pyrimidine-4-yl)-N-pentylamine], for which the half-maximal inhibitory concentration (IC50) in the assay with IL-4 (Test 2, Table 1) stood at 0.3 µg/mL.

On to `CCCCC(Nc1nc(N)nc2c1CCCC2)C(N)=O` (stereo not drawn) [Example 21], for which the half-inhibitory concentration (IC50) in the assay with IL-4 (Test 2, Table 1) amounted to 0.5 µg/mL.

As for `CCCCCNc1nc(N)nc(C)c1CCOC` [Example 22, N-(2-Amino-5-(2-methoxyethyl)-6-methylpyrimidine-4-yl)-N-pentylamine], in the assay on IL-4 (Test 2, Table 1), the half-maximal inhibitory concentration (IC50) is 0.5 µg/mL.

As for `CCCCCNc1nc(N)nc(C)c1CCC#N` [Example 23, 3-[2-Amino-4-methyl-6-(pentylamino)pyrimidine-5-yl]propanenitrile], the half-maximal inhibitory concentration (IC50) in the assay on IL-4 (Test 2, Table 1) was found to be 0.5 µg/mL.

On to `CCCCCNc1nc(N)nc(C)c1CC` [Example 24, N-[2-Amino-5-ethyl-6-methylpyrimidine-4-yl)-N-pentylamine], for which the IC50 in the assay on IL-4 (Test 2, Table 1) was determined as 0.2 µg/mL.

`CCCCc1c(C)nc(N)nc1NCC(O)CCC` (stereo not drawn) [Example 25, 1-[(2-Amino-5-butyl-6-methylpyrimidine-4-yl)amino]pentane-2-ol]: in the assay on IL-4 (Test 2, Table 1), the half-maximal inhibitory concentration (IC50) amounted to 0.1 µg/mL.

Consider `CCCCCNc1nc(N)nc(C)c1Cc1ccccc1` [Example 26, N-(2-Amino-5-benzyl-6-methylpyrimidine-4-yl)-N-pentylamine], for which the IC50 with IL-4 (Test 4, Table 2) amounted to 0.5 µg/mL. In addition, the “production of IL-4” value in the assay with IL-4 was “inhibit the production”. For the same compound, the “production of IL-5” value in the assay on IL-5 is given as “inhibit the production”. Besides, the “production of IFN-γ” value with IFN-γ is on record as “enhance the production”.

As for `CCCCCNc1nc(N)ncc1Cc1ccccc1` [Example 27, N-(2-Amino-5-benzylpyrimidine-4-yl)-N-pentylamine], the half-inhibitory concentration (IC50) with IL-4 (Test 4, Table 2) came to 1 µg/mL. In addition, the “production of IL-4” value in the assay with IL-4 is reported as “inhibit the production”. Further, the “production of IL-5” value in the assay on IL-5 is on record as “inhibit the production”. In the assay with IFN-γ, the “production of IFN-γ” value is on record as “enhance the production”.

Broadly, the IC50 is the point on the concentration scale where inhibition reaches its midpoint.
